Tests used:
[1] = Protonophore activity on black membrane model (diffusion potential on lipid bilayer); conditions: C12-TPP 1 μM in both compartments; ΔpH=1 by KOH; palmitic acid 1 mg/ml in membrane vs absent; pH 7.5
Procedure: To test penetrating ability of mitochondria-targeted compounds of structure (I), a method based on the ability of ions to penetrate through the bilayer phospholipid membrane moving along concentration gradient was used. The two chambers filled with an aqueous solution are separated by the bilayer membrane, the compound tested is added to one of the chambers. If a charged compound is capable of penetrating through the bilayer membrane, fast diffusion of the compound from the chamber with its high concentration to the chamber with its low concentration occurs, thus difference in the potentials is formed on the membrane. For ions carrying one charge and capable of passive penetrating through the membrane, the 10-fold concentration gradient allows to produce the potential of 60 mV (according to the Nernst equation).
This method was used in various studies on the ability of ions to penetrate through a bilipid membrane and is described in Starkov, et al. (1997) Biochem. Biophys. Acta, 1318:159-172. With this method, C12-TPP (compound of structure (I)) was tested.
Experiments were carried out in a Teflon cuvette having two compartments, and in a 0.6-mm hole between the two compartments the membrane was formed. Medium contained 50 mM Tris-HCl, 100 mM KCl, pH=7.5. ΔpH=1 was created by adding KOH to one of the cuvette compartments. […]

[2] = tested on: yeast Saccharomyces cerevisiae; experiment: Programmed death in yeast induced by amiodarone (colony survival); assay type: cell-based; conditions: 80 μM amiodarone; for survival of yeast cells (protective effect, in words): TPP tested from 100 nM to 400 nM; for survival of yeast cells: 1 hr at 30° C., survival without compound 2 percent, 3 independent experiments, p below 0.05
Text: Amiodarone (a calcium channel blocker) causes the death of the yeast Saccharomyces cerevisiae which by a number of features resembles apoptosis in higher eukaryotes. In the cells, amiodarone induces activation of a cascade of events leading to formation of reactive oxygen species and subsequent cell death. […] A source of formation of reactive oxygen species induced by amiodarone is a hyperpolarized mitochondrium.
The following compounds of structure (I) (SKQ1, SKQ3, and C12TPP) were selected for this study. […] Then a compound of structure (I) or mock and 80 μM amiodarone were added to the cell suspension. Cells were incubated for 1 hr at 30° C. and afterwards transferred to solid YPD medium containing 2% bactoagar. The number of colonies was counted after 2 days of incubation on solid medium. 100% survival corresponds to the number of colonies from zero time-point transferred to solid medium prior to addition of amiodarone.

[3] = Fluorescence correlation spectroscopy of SkQR1 micelles in aqueous solution with fatty acid (stearate); assay type: physicochemical
Procedure: Fluorescence correlation spectroscopy (FCS) is often used to study micellization of surfactants. In one report (Lu, et al. (2006) Analytica Chimica Acta, 556:216-225), R18, i.e., rhodamine with covalently attached fat tail was used as a marker. R18 itself forms large and poorly fluorescent aggregates in aqueous solution resulting in a small number of particles in the confocal volume (N) and a small fluorescence signal. When a detergent was added at a concentration above its CMC (the critical micelle concentration), an increase in total fluorescence and a significant increase in the number of particles N occurred. […] That was associated with lower diffusion coefficient of detergent micelles as compared to the R18 aggregates.
FIGS. 6A and B show the effect of a fatty acid (stearate) on the autocorrelation function of SkQR1 in water. […] For example, the number of particles in the confocal volume sharply increases. The constant of micelle formation for stearate is about 0.3 mM. In this case, fragmentation of the SkQR1 aggregates induced by such low concentrations of the fatty acid occurs. This fragmentation decreases the degree of the self-quenching of fluorescence that increases the total signal. […] The constant of micelle formation for anionic surfactants decreases under the influence of cationic surfactants or polymers. In that case, the total fluorescence signal was 141 kHz. […] The total fluorescence signal was 63 kHz that points to the beginning of the self-quenching of the dye in the micelles.
The fluctuations of the fluorescence signal in this case have no diffusion component yet. This process may be the output/input of SkQR1 molecules from water into micelles that can lead to fluctuations of the fluorescence due to the different quantum yield of fluorescence of the dye in polar and non-polar environments (Zettl, et al. (2005) J. Phys. Chem. B. 109:13397-13401).

## CCCCCCCCCCCC[P+](c1ccccc1)(c1ccccc1)c1ccccc1 [C12-TPP, dodecyl triphenylphosphonium]
[1]
  diffusion potential (ΔΨ) in response to ΔpH creation: presence of a fatty acid in the membrane facilitates an increase in diffusion potential
[2]
  survival of yeast cells (protective effect, in words): even more effective than the tested antioxidants
[2]; pronounced concentration dependence
  optimum concentration of the protective effect: 200 nM

## COc1c(O)c(C)c(CCCCCCCCCC[P+](c2ccccc2)(c2ccccc2)c2ccccc2)c(O)c1OC [MitoQ]
[2]
  survival of yeast cells: 8%

## Cc1c(O)cc(CCCCCCCCCC[P+](c2ccccc2)(c2ccccc2)c2ccccc2)c(O)c1C [SkQ1]
[2]
  survival of yeast cells (protective effect, in words): significantly increase the survival

## Cc1c(C)c(O)c(CCCCCCCCCC[P+](c2ccccc2)(c2ccccc2)c2ccccc2)c(C)c1O [SkQ3]
[2]
  survival of yeast cells (protective effect, in words): significantly increase the survival

## CC/N=c1/cc2oc3cc(NCC)c(C)cc3c(-c3ccccc3C(=O)OCCCCCCCCCCC3=CC(=O)C(C)=C(C)C3=O)c-2cc1C [SkQR1]
[3]; 1.5 μg/ml (about 5 μM) stearate
  fluorescence signal from the sample: 67 kHz
[3]; aggregates degrade in presence of low concentrations of fatty acids
  aggregation state in aqueous solution: forms micelles (or large aggregates) in aqueous solution
[3]; further increase in concentration of stearate (above 50 μM)
  total fluorescence signal: 63 kHz
[3]; in water, absence of stearate
  fluorescence signal from the sample: 44 kHz
[3]; stearate up to 50 μM
  total fluorescence signal: 141 kHz
[2]
  survival of yeast cells: 7%

Reference: patent US9308214B2, “Method for moderately increasing the proton conductivity of biological membranes with the aid of mitochondria-targeted delocalized cations” (MITOTECH S.A., priority 2008, dated 2016)
